Tests used:
Type in all cases: in vivo
[1] = test system: velvetleaf (Abutilon theophrasti, ABUTH); assay: Test A post-emergence, velvetleaf; conditions: after 13 d
Method in brief: (§1)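 Visual damage at 13 d after treatment, rated from 0 (no damage) to 100 (total damage). Eight-day-old pot-grown plants had been sprayed with 15.625, 62.5 or 250 g/ha of compound in aqueous acetone (50:50) containing 0.5% Tween 20.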

[2] = test system: ivy-leaved morning glory (Ipomoea hederacea, IPOHE); assay: Test A pre-emergence, ivy-leaved morning glory; conditions: after 13 d
Method in brief: (§2)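 Seeds sown in pots of standard soil and sprayed one day later, pre-emergence, at 15.625, 62.5 or 250 g/ha in acetone/water (50:50) with 0.5% Tween 20. Grown in glasshouse at 24/16 °C, 14 h light, 65% humidity. Damage scored after 13 d (0 none, 100 total).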

[3] = test system: plants; assay: Test D post-emergence, other plants of Tables D2 and D4; conditions: for damage to plant (100=total damage to plant; 0=no damage to plant), ABUTH / damage to plant (100=total damage to plant; 0=no damage to plant), AMARE / damage to plant (100=total damage to plant; 0=no damage to plant), BIDPI / damage to plant (100=total damage to plant; 0=no damage to plant), BRAPL / damage to plant (100=total damage to plant; 0=no damage to plant), CYPES / damage to plant (100=total damage to plant; 0=no damage to plant), DIGSA / damage to plant (100=total damage to plant; 0=no damage to plant), ECHCG / damage to plant (100=total damage to plant; 0=no damage to plant), ELEIN / damage to plant (100=total damage to plant; 0=no damage to plant), EPHHL / damage to plant (100=total damage to plant; 0=no damage to plant), GLXMA / damage to plant (100=total damage to plant; 0=no damage to plant), IPOHE / damage to plant (100=total damage to plant; 0=no damage to plant), ORYSA / damage to plant (100=total damage to plant; 0=no damage to plant), PANMI / damage to plant (100=total damage to plant; 0=no damage to plant), SETFA / damage to plant (100=total damage to plant; 0=no damage to plant), SORVU: post-emergence
Method in brief: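 Damage was rated visually from 0 (none) to 100 (total), at 20 DAA for pre-emergence and 15 d for post-emergence. Plants grew from safener-treated seed in a glasshouse at 24/18° C. or 20/16° C. day/night, 65% humidity, watered twice daily.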

[4] = test system: redroot pigweed (Amaranthus retroflexus, AMARE); assay: Test A post-emergence, redroot pigweed; conditions: after 13 d
Method in brief: as §1

[5] = test system: redroot pigweed (Amaranthus retroflexus, AMARE); assay: Test A pre-emergence, redroot pigweed; conditions: after 13 d
Method in brief: as §2

[6] = "Cereals" Postemergent, Rates 130, evaluated after 15 d
[7] = "Cereals" Postemergent, Rates 250, evaluated after 15 d
[8] = "Cereals" Postemergent, Rates 500, evaluated after 15 d

## CN1CC(c2cc(C(F)(F)F)n(C)n2)C(C(=O)Nc2ccc(F)c(F)c2F)C1=O (racemic) [Compound 17]
[1]; Post-Emergence at 15.625 g/ha
  damage to plant (100=total damage; 0=no damage) ABUTH: 0
[1]; Post-Emergence at 62.5 g/ha
  damage to plant (100=total damage; 0=no damage) ABUTH: 0
[1]; Post-Emergence at 250 g/ha
  damage to plant (100=total damage; 0=no damage) ABUTH: 0
[2]; Pre-Emergence at 15.625 g/ha
  damage to plant (100=total damage; 0=no damage) IPOHE: 0
[2]; Pre-Emergence at 62.5 g/ha
  damage to plant (100=total damage; 0=no damage) IPOHE: 0
[2]; Pre-Emergence at 250 g/ha
  damage to plant (100=total damage; 0=no damage) IPOHE: 20
[3]; [6]
  ALOMY damage rating (100=total damage to plant; 0=no damage to plant): 30
  AVEFA damage rating (100=total damage to plant; 0=no damage to plant): 0
  BEAVA damage rating (100=total damage to plant; 0=no damage to plant): 10
  BROTE damage rating (100=total damage to plant; 0=no damage to plant): 0
  BRSNN damage rating (100=total damage to plant; 0=no damage to plant): 0
  CHEAL damage rating (100=total damage to plant; 0=no damage to plant): 0
  GALAP damage rating (100=total damage to plant; 0=no damage to plant): 0
  HORVW damage rating (100=total damage to plant; 0=no damage to plant): 10
  KCHSC damage rating (100=total damage to plant; 0=no damage to plant): 0
  LOLPE damage rating (100=total damage to plant; 0=no damage to plant): 0
  POAAN damage rating (100=total damage to plant; 0=no damage to plant): 60
  POLCO damage rating (100=total damage to plant; 0=no damage to plant): 0
  STEME damage rating (100=total damage to plant; 0=no damage to plant): 0
  VERPE damage rating (100=total damage to plant; 0=no damage to plant): 30
[3]; [7]
  ALOMY damage rating (100=total damage to plant; 0=no damage to plant): 50
  AVEFA damage rating (100=total damage to plant; 0=no damage to plant): 30
  BEAVA damage rating (100=total damage to plant; 0=no damage to plant): 20
  BROTE damage rating (100=total damage to plant; 0=no damage to plant): 10
  BRSNN damage rating (100=total damage to plant; 0=no damage to plant): 20
  CHEAL damage rating (100=total damage to plant; 0=no damage to plant): 60
  GALAP damage rating (100=total damage to plant; 0=no damage to plant): 40
  HORVW damage rating (100=total damage to plant; 0=no damage to plant): 40
  KCHSC damage rating (100=total damage to plant; 0=no damage to plant): 0
  LOLPE damage rating (100=total damage to plant; 0=no damage to plant): 30
  POAAN damage rating (100=total damage to plant; 0=no damage to plant): 80
  POLCO damage rating (100=total damage to plant; 0=no damage to plant): 0
  STEME damage rating (100=total damage to plant; 0=no damage to plant): 0
  VERPE damage rating (100=total damage to plant; 0=no damage to plant): 70
[3]; [8]
  ALOMY damage rating (100=total damage to plant; 0=no damage to plant): 70
  AVEFA damage rating (100=total damage to plant; 0=no damage to plant): 60
  BEAVA damage rating (100=total damage to plant; 0=no damage to plant): 20
  BROTE damage rating (100=total damage to plant; 0=no damage to plant): 20
  BRSNN damage rating (100=total damage to plant; 0=no damage to plant): 20
  CHEAL damage rating (100=total damage to plant; 0=no damage to plant): 50
  GALAP damage rating (100=total damage to plant; 0=no damage to plant): 30
  HORVW damage rating (100=total damage to plant; 0=no damage to plant): 80
  KCHSC damage rating (100=total damage to plant; 0=no damage to plant): 20
  LOLPE damage rating (100=total damage to plant; 0=no damage to plant): 60
  POAAN damage rating (100=total damage to plant; 0=no damage to plant): 90
  POLCO damage rating (100=total damage to plant; 0=no damage to plant): 10
  STEME damage rating (100=total damage to plant; 0=no damage to plant): 30
  VERPE damage rating (100=total damage to plant; 0=no damage to plant): 60
[3]; SINAR, "Cereals" Postemergent, Rates 500, evaluated after 15 d
  SINAR damage rating (100=total damage to plant; 0=no damage to plant): 60
[3]; rate 130, evaluated after 15 d
  damage to plant (100=total damage to plant; 0=no damage to plant), ABUTH: 0
  damage to plant (100=total damage to plant; 0=no damage to plant), BIDPI: 0
  damage to plant (100=total damage to plant; 0=no damage to plant), BRAPL: 70
  damage to plant (100=total damage to plant; 0=no damage to plant), CYPES: 0
  damage to plant (100=total damage to plant; 0=no damage to plant), DIGSA: 70
  damage to plant (100=total damage to plant; 0=no damage to plant), ECHCG: 80
  damage to plant (100=total damage to plant; 0=no damage to plant), ELEIN: 0
  damage to plant (100=total damage to plant; 0=no damage to plant), EPHHL: 10
  damage to plant (100=total damage to plant; 0=no damage to plant), GLXMA: 0
  damage to plant (100=total damage to plant; 0=no damage to plant), IPOHE: 0
  damage to plant (100=total damage to plant; 0=no damage to plant), ORYSA: 0
  damage to plant (100=total damage to plant; 0=no damage to plant), PANMI: 0
  damage to plant (100=total damage to plant; 0=no damage to plant), SETFA: 60
  damage to plant (100=total damage to plant; 0=no damage to plant), SORVU: 0
[3]; rate 250, evaluated after 15 d
  damage to plant (100=total damage to plant; 0=no damage to plant), ABUTH: 0
  damage to plant (100=total damage to plant; 0=no damage to plant), AMARE: 20
  damage to plant (100=total damage to plant; 0=no damage to plant), BIDPI: 0
  damage to plant (100=total damage to plant; 0=no damage to plant), BRAPL: 80
  damage to plant (100=total damage to plant; 0=no damage to plant), CYPES: 0
  damage to plant (100=total damage to plant; 0=no damage to plant), DIGSA: 80
  damage to plant (100=total damage to plant; 0=no damage to plant), ECHCG: 80
  damage to plant (100=total damage to plant; 0=no damage to plant), ELEIN: 10
  damage to plant (100=total damage to plant; 0=no damage to plant), EPHHL: 20
  damage to plant (100=total damage to plant; 0=no damage to plant), GLXMA: 0
  damage to plant (100=total damage to plant; 0=no damage to plant), IPOHE: 0
  damage to plant (100=total damage to plant; 0=no damage to plant), ORYSA: 0
  damage to plant (100=total damage to plant; 0=no damage to plant), PANMI: 0
  damage to plant (100=total damage to plant; 0=no damage to plant), SETFA: 70
  damage to plant (100=total damage to plant; 0=no damage to plant), SORVU: 0
[3]; rate 500, evaluated after 15 d
  damage to plant (100=total damage to plant; 0=no damage to plant), ABUTH: 20
  damage to plant (100=total damage to plant; 0=no damage to plant), AMARE: 40
  damage to plant (100=total damage to plant; 0=no damage to plant), BIDPI: 0
  damage to plant (100=total damage to plant; 0=no damage to plant), BRAPL: 80
  damage to plant (100=total damage to plant; 0=no damage to plant), CYPES: 10
  damage to plant (100=total damage to plant; 0=no damage to plant), DIGSA: 80
  damage to plant (100=total damage to plant; 0=no damage to plant), ECHCG: 80
  damage to plant (100=total damage to plant; 0=no damage to plant), ELEIN: 20
  damage to plant (100=total damage to plant; 0=no damage to plant), EPHHL: 30
  damage to plant (100=total damage to plant; 0=no damage to plant), GLXMA: 10
  damage to plant (100=total damage to plant; 0=no damage to plant), IPOHE: 10
  damage to plant (100=total damage to plant; 0=no damage to plant), ORYSA: 10
  damage to plant (100=total damage to plant; 0=no damage to plant), PANMI: 0
  damage to plant (100=total damage to plant; 0=no damage to plant), SETFA: 70
  damage to plant (100=total damage to plant; 0=no damage to plant), SORVU: 0
[4]; Post-Emergence at 15.625 g/ha
  damage to plant (100=total damage; 0=no damage) AMARE: 0
[4]; Post-Emergence at 62.5 g/ha
  damage to plant (100=total damage; 0=no damage) AMARE: 20
[4]; Post-Emergence at 250 g/ha
  damage to plant (100=total damage; 0=no damage) AMARE: 50
[5]; Pre-Emergence at 15.625 g/ha
  damage to plant (100=total damage; 0=no damage) AMARE: 0
[5]; Pre-Emergence at 62.5 g/ha
  damage to plant (100=total damage; 0=no damage) AMARE: 10
[5]; Pre-Emergence at 250 g/ha
  damage to plant (100=total damage; 0=no damage) AMARE: 20

Source: US20220281848A1, “PYRAZOLE-SUBSTITUTED PYRROLIDINONES AS HERBICIDES” (FMC Corporation, priority 2019, published 2022)
